Experimental data taken from ChEMBL document CHEMBL5096180, “Pyrimidine-based EGFR TK inhibitors in targeted cancer therapy” (Eur J Med Chem, 2021).
pIC50: −log10 of the molar value. Several values for one entry are separate records, joined by “and”; a condition that tells them apart may be missing. Equal entries are not always repeated.

Key:
[1] = system: BaF3; assay: Antiproliferative activity against mouse BAF3 cells harboring EGFR 19D/T790M/C797S triple mutant; type: functional, cell-based
[2] = system: BaF3; assay: Antiproliferative activity against mouse BAF3 cells harboring EGFR L858R/T790M/C797S triple mutant; type: functional, cell-based
[3] = target: Epidermal growth factor receptor (Homo sapiens, UniProt P00533, C797S/L858R/T790M); assay: Inhibition of EGFR L858R/T790M/C797S triple mutant (unknown origin)
[4] = system: NCI-H1975; assay: Growth inhibition of human NCI-H1975 cells harbouring EGFR L858R/T790M double mutant; type: functional
[5] = target: T1, Epidermal growth factor receptor (Homo sapiens, UniProt P00533); assay: Inhibition of recombinant EGFR (unknown origin) using TMB as substrate incubated for 3 hrs in presence of ATP by ELISA
[6] = system: MCF7; assay: Potency index,ratio of test compound IC50 to Doxorubicin IC50 for antiproliferative activity against human MCF7 cells incubated for 48 hrs by MTT assay; type: functional
[7] = system: MCF7; assay: Anticancer activity against human MCF7 cells incubated for 48 hrs by MTT assay; type: functional, cell-based; conditions: MCF7, 48 h
[8] = system: MCF7; assay: Potency index,ratio of test compound IC50 to Erlotinib IC50 for antiproliferative activity against human MCF7 cells incubated for 48 hrs by MTT assay; type: functional
[9] = system: HCT-116; assay: Anticancer activity against human HCT-116 cells; type: functional, cell-based
[10] = target: T1, Epidermal growth factor receptor; assay: Inhibition of EGFR (unknown origin) at 50 uM relative to control
[11] = system: HepG2; assay: Anticancer activity against human HepG2 cells; type: functional, cell-based
[12] = system: PC-3; assay: Anticancer activity against human PC-3 cells; type: functional, cell-based
[13] = target: T1, Epidermal growth factor receptor; assay: Inhibition of EGFR (unknown origin) at 100 uM relative to control
[14] = Inhibition of recombinant N-terminal GST-tagged human HER2 expressed in sf9 insect cells using poly(Glu, Tyr) sodium salt (4:1, Glu:Tyr) as a substrate measured after 40 mins by Kinase-Glo reagent based luminescence analysis
[15] = target: T1, Epidermal growth factor receptor; assay: Inhibition of recombinant C-terminal His-tagged/N-terminal GST-tagged human EGFR expressed in sf9 insect cells using poly(Glu, Tyr) sodium salt (4:1, Glu:Tyr) as a substrate measured after 40 mins by Kinase-Glo reagent based luminescence analysis
[16] = system: EKVX; assay: Anticancer activity against human EKVX assessed as cell growth inhibition at 10 uM incubated for 48 hrs relative to control; type: functional; conditions: pooled result: one value given for 8 cell lines, strains, targets or settings
[17] = target: Epidermal growth factor receptor (Homo sapiens, UniProt P00533, L858R/T790M); assay: Inhibition of EGFR L858R/T790M double mutant (unknown origin) in presence of ATP by ADP-Glo assay
[18] = system: HCC827; assay: Antiproliferative activity against human HCC827 assessed as cell growth inhibition; type: functional, cell-based
[19] = system: NCI-H1975; assay: Antiproliferative activity against human NCI-H1975 assessed as cell growth inhibition; type: functional, cell-based
[20] = system: NCI-H1975; assay: Antiproliferative activity against human NCI-H1975 cells assessed as cell growth inhibition incubated for 72 hrs by MTT assay; type: functional, cell-based; conditions: NCI-H1975, 72 h
[21] = system: NCI-H460; assay: Anticancer activity against human NCI-H460 cells assessed as cell viability incubated for 24 hrs by MTT assay; type: functional, cell-based
[22] = system: OVCAR-4; assay: Anticancer activity against human OVCAR-4 cells assessed as cell viability incubated for 24 hrs by MTT assay; type: functional, cell-based; conditions: OVCAR-4, 24 h
[23] = system: ACHN; assay: Anticancer activity against human ACHN cells assessed as cell viability incubated for 24 hrs by MTT assay; type: functional, cell-based
[24] = target: Receptor tyrosine-protein kinase erbB-2 (Homo sapiens, UniProt P04626); assay: Inhibition of ErbB2 (unknown origin) pre-incubated for 5 mins followed by substrate addition and measured after 30 mins in presence of ATP by microtitre plate reader analysis
[25] = target: Epidermal growth factor receptor (Homo sapiens, UniProt P00533, T790M); assay: Inhibition of EGFR T790M mutant (unknown origin)
[26] = target: T2, Tyrosine-protein kinase JAK3 (Homo sapiens) (UniProt P52333); assay: Inhibition of JAK3 (unknown origin)
T2 sequence (whole entry): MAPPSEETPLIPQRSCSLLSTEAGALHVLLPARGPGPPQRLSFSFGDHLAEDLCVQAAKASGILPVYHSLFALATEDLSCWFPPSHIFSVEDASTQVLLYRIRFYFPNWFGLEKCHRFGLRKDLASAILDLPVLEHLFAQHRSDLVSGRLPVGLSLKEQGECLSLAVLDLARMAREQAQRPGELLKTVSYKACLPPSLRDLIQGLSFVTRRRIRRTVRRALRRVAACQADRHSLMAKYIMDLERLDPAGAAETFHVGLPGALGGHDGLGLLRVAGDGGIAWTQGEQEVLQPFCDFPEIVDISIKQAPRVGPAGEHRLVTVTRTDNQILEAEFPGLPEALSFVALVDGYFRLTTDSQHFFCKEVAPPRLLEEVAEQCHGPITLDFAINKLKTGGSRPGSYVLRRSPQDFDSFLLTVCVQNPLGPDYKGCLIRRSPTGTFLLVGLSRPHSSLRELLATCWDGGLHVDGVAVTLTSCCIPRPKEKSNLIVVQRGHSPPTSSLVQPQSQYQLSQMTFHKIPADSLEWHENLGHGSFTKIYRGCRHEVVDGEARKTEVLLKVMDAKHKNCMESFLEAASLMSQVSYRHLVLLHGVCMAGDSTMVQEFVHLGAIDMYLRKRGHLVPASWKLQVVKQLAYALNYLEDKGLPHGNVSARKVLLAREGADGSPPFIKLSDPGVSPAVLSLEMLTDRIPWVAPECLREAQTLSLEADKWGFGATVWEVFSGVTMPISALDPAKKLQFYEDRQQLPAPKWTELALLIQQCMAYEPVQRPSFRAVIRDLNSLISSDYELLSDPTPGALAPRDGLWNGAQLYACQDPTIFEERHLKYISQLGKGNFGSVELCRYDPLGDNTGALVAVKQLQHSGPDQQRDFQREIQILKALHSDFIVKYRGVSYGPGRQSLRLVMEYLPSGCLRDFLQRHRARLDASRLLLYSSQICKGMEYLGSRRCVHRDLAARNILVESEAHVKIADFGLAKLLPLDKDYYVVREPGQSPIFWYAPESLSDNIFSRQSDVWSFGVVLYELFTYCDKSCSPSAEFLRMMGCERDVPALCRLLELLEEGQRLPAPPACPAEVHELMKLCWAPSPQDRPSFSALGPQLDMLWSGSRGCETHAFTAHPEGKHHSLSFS

[27] = system: Epidermal growth factor receptor (Homo sapiens), P00533 [L858R]; assay: Inhibition of EGFR L858R mutant (unknown origin) relative to control; conditions: concentration not given here
[28] = system: Epidermal growth factor receptor (Homo sapiens), P00533 [L858R,T790M]; assay: Inhibition of EGFR T790M/L858R double mutant (unknown origin) relative to control
Sequence of Epidermal growth factor receptor (Homo sapiens), P00533 [L858R,T790M] (P00533 whole entry T790M/L858R, looked up): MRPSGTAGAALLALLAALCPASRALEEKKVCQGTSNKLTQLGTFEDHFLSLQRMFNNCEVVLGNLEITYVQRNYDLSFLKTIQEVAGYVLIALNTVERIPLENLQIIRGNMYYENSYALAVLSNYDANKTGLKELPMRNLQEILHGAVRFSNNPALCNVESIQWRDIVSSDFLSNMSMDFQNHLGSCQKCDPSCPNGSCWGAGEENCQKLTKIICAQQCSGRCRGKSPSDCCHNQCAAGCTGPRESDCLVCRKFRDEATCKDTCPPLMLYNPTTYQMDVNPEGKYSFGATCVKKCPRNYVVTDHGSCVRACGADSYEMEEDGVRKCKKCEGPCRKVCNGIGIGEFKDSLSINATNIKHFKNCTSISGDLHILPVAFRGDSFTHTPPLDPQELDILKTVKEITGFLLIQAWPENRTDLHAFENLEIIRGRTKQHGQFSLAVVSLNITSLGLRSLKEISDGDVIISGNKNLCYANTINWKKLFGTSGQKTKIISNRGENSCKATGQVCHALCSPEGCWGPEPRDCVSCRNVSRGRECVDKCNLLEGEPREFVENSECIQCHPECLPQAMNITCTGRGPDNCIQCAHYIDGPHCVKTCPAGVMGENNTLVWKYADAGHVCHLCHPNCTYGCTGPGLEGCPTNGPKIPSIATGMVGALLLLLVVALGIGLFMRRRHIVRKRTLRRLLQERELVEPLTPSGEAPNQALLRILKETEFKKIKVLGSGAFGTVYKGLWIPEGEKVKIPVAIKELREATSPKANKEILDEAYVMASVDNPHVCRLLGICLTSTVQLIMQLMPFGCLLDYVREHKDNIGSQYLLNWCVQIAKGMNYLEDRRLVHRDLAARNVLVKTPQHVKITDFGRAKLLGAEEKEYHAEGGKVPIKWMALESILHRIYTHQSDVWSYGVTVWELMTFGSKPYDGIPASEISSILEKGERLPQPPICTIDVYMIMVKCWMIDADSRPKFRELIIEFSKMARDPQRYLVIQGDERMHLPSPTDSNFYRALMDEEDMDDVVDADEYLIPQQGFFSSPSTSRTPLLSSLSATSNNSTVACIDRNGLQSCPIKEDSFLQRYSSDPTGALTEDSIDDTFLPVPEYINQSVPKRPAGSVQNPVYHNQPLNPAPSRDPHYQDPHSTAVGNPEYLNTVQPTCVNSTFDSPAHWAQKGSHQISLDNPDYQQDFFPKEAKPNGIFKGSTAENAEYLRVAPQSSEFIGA

T1 sequence (P00533 whole entry): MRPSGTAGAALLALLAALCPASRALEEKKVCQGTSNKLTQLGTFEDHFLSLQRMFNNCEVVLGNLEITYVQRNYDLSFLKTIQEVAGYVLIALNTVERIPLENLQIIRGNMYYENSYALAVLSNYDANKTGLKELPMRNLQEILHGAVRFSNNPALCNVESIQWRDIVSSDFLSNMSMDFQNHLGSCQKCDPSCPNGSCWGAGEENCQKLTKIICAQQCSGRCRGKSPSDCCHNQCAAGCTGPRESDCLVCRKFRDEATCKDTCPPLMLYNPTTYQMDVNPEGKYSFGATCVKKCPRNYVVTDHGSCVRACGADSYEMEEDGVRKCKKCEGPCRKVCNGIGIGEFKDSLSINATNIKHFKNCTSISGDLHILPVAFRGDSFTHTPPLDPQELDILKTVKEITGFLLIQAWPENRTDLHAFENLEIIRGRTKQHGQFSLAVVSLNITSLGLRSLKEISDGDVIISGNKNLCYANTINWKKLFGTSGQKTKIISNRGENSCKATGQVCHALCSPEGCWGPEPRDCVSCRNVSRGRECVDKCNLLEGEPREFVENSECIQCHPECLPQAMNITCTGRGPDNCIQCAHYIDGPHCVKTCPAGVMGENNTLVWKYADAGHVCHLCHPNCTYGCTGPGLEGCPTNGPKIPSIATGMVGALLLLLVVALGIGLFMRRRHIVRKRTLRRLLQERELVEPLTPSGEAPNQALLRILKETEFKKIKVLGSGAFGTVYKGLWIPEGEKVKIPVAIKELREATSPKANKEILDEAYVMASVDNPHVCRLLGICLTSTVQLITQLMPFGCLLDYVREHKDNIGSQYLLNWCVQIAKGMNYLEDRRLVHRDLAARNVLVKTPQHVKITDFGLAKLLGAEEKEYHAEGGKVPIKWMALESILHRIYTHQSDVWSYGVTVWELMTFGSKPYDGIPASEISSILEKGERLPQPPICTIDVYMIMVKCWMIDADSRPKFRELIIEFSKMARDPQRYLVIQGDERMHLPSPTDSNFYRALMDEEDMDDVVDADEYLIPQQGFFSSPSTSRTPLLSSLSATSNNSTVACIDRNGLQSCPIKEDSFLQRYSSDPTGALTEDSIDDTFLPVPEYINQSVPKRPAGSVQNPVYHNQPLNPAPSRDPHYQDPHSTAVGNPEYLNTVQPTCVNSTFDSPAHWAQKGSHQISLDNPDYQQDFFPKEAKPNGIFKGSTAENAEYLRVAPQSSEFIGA
Sequence of Epidermal growth factor receptor (Homo sapiens, UniProt P00533, L858R/T790M) (P00533 25-1210 T790M/L858R limits assumed): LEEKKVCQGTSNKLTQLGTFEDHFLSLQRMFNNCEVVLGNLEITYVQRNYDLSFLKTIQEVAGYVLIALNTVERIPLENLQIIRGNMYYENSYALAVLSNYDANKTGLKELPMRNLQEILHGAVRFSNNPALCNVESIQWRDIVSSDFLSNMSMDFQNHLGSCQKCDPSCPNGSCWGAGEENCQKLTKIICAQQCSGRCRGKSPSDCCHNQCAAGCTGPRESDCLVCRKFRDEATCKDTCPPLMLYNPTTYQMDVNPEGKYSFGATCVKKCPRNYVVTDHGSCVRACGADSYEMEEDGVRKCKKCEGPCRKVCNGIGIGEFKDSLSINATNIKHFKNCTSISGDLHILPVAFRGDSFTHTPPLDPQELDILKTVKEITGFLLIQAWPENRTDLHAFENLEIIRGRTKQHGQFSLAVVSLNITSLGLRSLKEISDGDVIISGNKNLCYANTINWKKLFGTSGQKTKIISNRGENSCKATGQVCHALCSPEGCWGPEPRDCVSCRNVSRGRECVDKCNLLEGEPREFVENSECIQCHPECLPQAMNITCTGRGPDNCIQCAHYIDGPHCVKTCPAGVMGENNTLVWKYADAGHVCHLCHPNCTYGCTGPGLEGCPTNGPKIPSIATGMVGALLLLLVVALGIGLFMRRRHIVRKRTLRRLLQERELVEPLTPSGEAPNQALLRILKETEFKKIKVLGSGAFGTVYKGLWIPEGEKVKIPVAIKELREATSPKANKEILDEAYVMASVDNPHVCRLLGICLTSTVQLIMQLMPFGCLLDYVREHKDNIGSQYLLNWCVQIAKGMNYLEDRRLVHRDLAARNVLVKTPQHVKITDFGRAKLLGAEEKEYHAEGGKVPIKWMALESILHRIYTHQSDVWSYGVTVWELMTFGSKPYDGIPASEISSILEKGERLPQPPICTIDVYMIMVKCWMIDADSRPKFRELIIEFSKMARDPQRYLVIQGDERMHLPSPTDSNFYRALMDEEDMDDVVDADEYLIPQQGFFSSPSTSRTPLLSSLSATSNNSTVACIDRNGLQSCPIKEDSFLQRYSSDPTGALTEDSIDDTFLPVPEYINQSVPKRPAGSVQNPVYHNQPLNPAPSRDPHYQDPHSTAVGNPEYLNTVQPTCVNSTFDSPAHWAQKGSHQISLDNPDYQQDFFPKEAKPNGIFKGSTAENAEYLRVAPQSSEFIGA
Sequence of Epidermal growth factor receptor (Homo sapiens, UniProt P00533, T790M) (P00533 25-1210 T790M limits assumed): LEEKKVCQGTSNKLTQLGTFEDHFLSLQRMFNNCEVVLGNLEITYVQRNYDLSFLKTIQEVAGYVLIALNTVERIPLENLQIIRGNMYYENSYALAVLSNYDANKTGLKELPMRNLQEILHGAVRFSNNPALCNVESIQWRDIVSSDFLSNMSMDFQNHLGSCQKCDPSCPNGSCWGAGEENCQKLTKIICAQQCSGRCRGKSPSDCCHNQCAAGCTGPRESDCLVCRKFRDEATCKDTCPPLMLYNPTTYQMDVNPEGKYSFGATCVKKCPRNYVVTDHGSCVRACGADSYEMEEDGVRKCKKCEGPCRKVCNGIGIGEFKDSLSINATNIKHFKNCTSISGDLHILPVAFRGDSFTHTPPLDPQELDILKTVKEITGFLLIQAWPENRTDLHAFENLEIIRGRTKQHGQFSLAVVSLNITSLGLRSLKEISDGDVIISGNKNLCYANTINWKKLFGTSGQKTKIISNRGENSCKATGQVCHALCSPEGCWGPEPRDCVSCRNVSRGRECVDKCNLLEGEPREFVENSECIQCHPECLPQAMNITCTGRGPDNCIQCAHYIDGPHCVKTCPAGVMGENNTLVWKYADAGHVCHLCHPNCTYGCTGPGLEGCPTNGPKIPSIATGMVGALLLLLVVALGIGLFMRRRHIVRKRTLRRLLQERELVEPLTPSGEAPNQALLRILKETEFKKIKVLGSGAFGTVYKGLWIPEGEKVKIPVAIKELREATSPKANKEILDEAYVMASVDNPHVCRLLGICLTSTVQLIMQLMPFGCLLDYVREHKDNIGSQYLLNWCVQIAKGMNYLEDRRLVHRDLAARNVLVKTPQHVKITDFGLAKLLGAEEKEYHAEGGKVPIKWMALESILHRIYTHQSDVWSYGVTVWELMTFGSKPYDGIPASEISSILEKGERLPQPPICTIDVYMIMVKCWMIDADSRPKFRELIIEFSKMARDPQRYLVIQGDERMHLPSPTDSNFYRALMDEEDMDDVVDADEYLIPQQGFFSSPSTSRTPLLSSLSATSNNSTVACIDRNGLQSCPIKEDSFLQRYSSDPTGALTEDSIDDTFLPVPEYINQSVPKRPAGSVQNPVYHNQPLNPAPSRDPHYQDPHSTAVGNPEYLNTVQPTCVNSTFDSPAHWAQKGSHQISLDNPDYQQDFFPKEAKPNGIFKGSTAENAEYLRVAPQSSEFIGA

With `CCC(=O)NC1CCC(N2C(=O)N(c3ccccc3Cl)Cc3cnc(Nc4ccc(N5CCN(C)CC5)c(C)c4)nc32)CC1` (centres undefined) as the compound, how does the pIC50 [1] read?
Its pIC50 is 6.51.

What about the pIC50 [2] of the same compound?
Its pIC50 is 6.54.

With `C=CC(=O)N1CCCC(n2nc(-c3ccc4ccccc4c3)c3c(N)ncnc32)C1` (centres undefined) as the compound, how does the pIC50 [3] read?
The pIC50 was 7.06.

And the GI50 [4]?
The GI50 was 140 nM.

Which GI50 [4] does the source give for `C=CC(=O)N1CCCC(n2nc(-c3cccc4ccccc34)c3c(N)ncnc32)C1` (centres undefined) here?
Its GI50 is 490 nM.

What does the source list for `C=CC(=O)Nc1cccc(Oc2nc(Nc3ccc(OC)cc3)nc3c2CSCC3)c1`?
pIC50 [5]: 7.55; Ratio IC50 [6]: 4.64; pIC50 [7]: 6.18; Ratio IC50 [8]: 1.73

With `Cc1ccc(-c2cc(-c3ccc(Cl)cc3)nc3nc(-n4[nH]c(C)cc4=O)[nH]c(=O)c23)cc1` as the compound, how does the pIC50 [9] read?
The pIC50 was 5.15.

What about the inhibition [10] of the same compound?
Its inhibition is 81%.

What about the pIC50 [11] of the same compound?
The pIC50 was 6.52.

What about the pIC50 [12] of the same compound?
Its pIC50 is 5.18.

And the inhibition [13]?
The inhibition was 86%.

With `Fc1cccc(COc2ccc(Nc3ncnc4sc5c(c34)CCCC5)cc2Cl)c1` as the compound, how does the pIC50 [14] read?
Its pIC50 is 6.30.

And the pIC50 [15]?
The pIC50 was 6.70.

And the inhibition at 10 µM [16]?
Its inhibition at 10 µM is 42%.

With `C=CC(=O)Nc1cccc(Nc2nc(Nc3ccc(SCC(=O)N4CCOCC4)cc3)ncc2Cl)c1` as the compound, how does the pIC50 [17] read?
The pIC50 was 8.04.

What does the source list for `CN(C)C1CCN(c2ccc(Nc3cc4c(N5CCC(CO)CC5)nc(Nc5ccc(F)cc5)nc4cn3)nc2)CC1`?
pIC50 [18]: 7.40; pIC50 [19]: 7.40

With `C=CC(=O)Nc1cccc(Nc2nc(Nc3ccc(SCCCN4CCOCC4)cc3)ncc2Cl)c1` as the compound, how does the pIC50 [20] read?
Its pIC50 is 7.13.

What about the pIC50 [17] of the same compound?
The pIC50 was 7.56.

With `Cc1nn(-c2ccc(F)cc2)c2c(Nc3ccc(F)c(Cl)c3)ncnc12` as the compound, how does the pIC50 [21] read?
Its pIC50 is 5.76 and 5.35.

And the pIC50 [22]?
The pIC50 was 5.76.

What about the pIC50 [23] of the same compound?
The pIC50 was 5.26.

And the pIC50 [24]?
The pIC50 was 6.60.

With `C=CC(=O)Nc1ccc(Nc2nccc(-c3cn(C)c4ccccc34)n2)cc1` as the compound, how does the pIC50 [25] read?
The pIC50 was 6.74.

With `CC#CC1=Nc2cc(Nc3nccc(-c4cn(C)c5ccccc45)n3)ccc2C(C)(C)O1` as the compound, how does the IC50 [26] read?
Its IC50 is 60 nM.

With `CC#CC(=O)Nc1ccc(Nc2nccc(-c3cn(C)c4ccccc34)n2)cc1` as the compound, how does the pIC50 [25] read?
Its pIC50 is 6.66.

Which GI50 [4] does the source give for `C=CC(=O)N1CCCC(n2nc(-c3cn(C)c4ccccc34)c3c(N)ncnc32)C1` (centres undefined) here?
Its GI50 is 210 nM.

Which inhibition [27] does the source give for `CCOC(=O)c1cnc(NC(N)=S)[nH]c1=O` here?
Its inhibition is 62%.

And the inhibition [28]?
Its inhibition is 62%.

Which inhibition [27] does the source give for `CCOC(=O)c1cnc(NC(N)=S)nc1C` here?
The inhibition was 62%.

What about the inhibition [28] of the same compound?
Its inhibition is 62%.
